Read-outs that look alike come from different tables or passages of the source.
Legend:
IL-6 = assay: Gene expression in rat articular chondrocytes under IL-1β stimulation, IL-6; format: cell-based; details: for IL-6 gene expression, percentage of inhibitory effect at the highest non toxic concentration: 6 h
Procedure: (§1) For gene expression analysis, 10 days after plating, the medium was changed and substituted with DMEM GlutaMAX I 0.4% to synchronize the cells. The cells were then co-treated in DMEM GlutaMAX I 0.4% with different concentrations of the test compounds and […] at a final concentration of 2 ng/ml for 6 h and 24 h. The test compound concentrations used have been chosen on the basis of the toxicity data.
(§2) At the end of the incubation, the supernatant was discarded, the cell were washed with cold PBS1X and scraped with 200 μl of RNA lysis buffer 1X (Nucleic Acid Purification Lysis Solution, Applied Biosystems).
(§3) Total RNA was purified using ABI Prism™ 6100 Nucleic Acid PrepStation (Applied Biosystems) following manufacturer's instructions.
(§4) Total RNA was retrotranscribed using the High-Capacity cDNA Archive Kit (Applied Biosystems-Thermo Fisher Scientific) following manufacturer's instructions.
(§5) The specific probes and primers for RealTime PCR were from Applied Biosystems (Thermo Fisher Scientific) as Assays-on-Demand™, while the probe and primers for the endogenous control 18S was a PDAR (Pre-Developed TaqMan® Assay Reagents—Applied Biosystems-Thermo Fisher Scientific).
(§6) The assays were designed to amplify target cDNA without amplifying genomic DNA.
(§7) Gene expression analysis for IL-1β, IL-6 and ADAMTS-5 were performed at 6 h incubation, while the gene expression analysis for MMP3, MMP13 and COX2 were performed at 24 h incubation.
(§8) For each compound the maximal concentration tested was dependent on the toxicity results obtained on primary rat chondrocytes.
(§9) The data analysis, with the normalisation on the amplified values for the 18S was done following the specific instruction of Applied Biosystems for the relative quantification of gene expression.

Fyn = Fyn (Homo sapiens (Human), UniProt P06241); assay: Z′-LYTE in vitro Fyn kinase activity assay; format: biochemical; details: ATP 50 μM; read-out: FYN KINASE INHIBITION IC50
Procedure: The Fyn kinase inhibitory activity of representative examples of compounds of Formula (1) was evaluated by Z′-LYTE™ Kinase Assay Platform (Invitrogen). Compounds were evaluated towards active Fyn (full length active, molecular weight 87.1 kDa; Invitrogen). […] Samples representing the 0% inhibition (or total enzymatic activity) were in the presence of compound diluent (1% DMSO final in Reaction Buffer 50 mMHepes, 10 mM MgCl2, 1 mM EGTA, 0.01% Brij-35, pH 7.5). The kinase reaction was carried out in a total volume of 10 μl, for 60 minutes at 25° C. The 0% Phosphorylation (i.e. no ATP) and 100% Phosphorylation Assay Controls, included in each plate, allowed to calculate the percent phosphorylation achieved in the specific reaction well. Results are expressed as percentage of inhibition and the IC50 values were calculated by non-linear curve fitting using GraphPad™ Prism software (version 6 for Windows).

MMP13 = assay: Gene expression in rat articular chondrocytes under IL-1β stimulation, MMP13; format: cell-based; design: key to MMP13 gene expression, no effect: ne: no effect; details: 24 h
Procedure: as §1, §2, §3, §4, §5, §6, §7, §8, §9

VEGFR2 = VEGFR2 (Homo sapiens (Human), UniProt P35968); assay: In vitro VEGFR2 kinase activity assay (Eurofins Cerep); format: biochemical; details: read-out: VEGFR2 KINASE INHIBITION IC50
Procedure: The VEGFR2 kinase inhibitory activity of representative examples of compounds of Formula (I) assays was evaluated in Eurofins Cerep (France). The concentration range of the inhibitors under investigation was from 10^−8 M up to 10^−5 M final concentration. Some compounds were re-tested in a concentration-range starting from 10^−9 M. The results are expressed as a percent of control activity (in the absence of test compound) and the IC50 values were determined by non-linear regression analysis of the inhibition/concentration curves generated with mean replicate values.

NF-kB = assay: Gene reporter (GR) assay, NF-kB activation after TNFα in JB6 Cl 41-5a (P+) cells; format: cell-based, murine; design: key to Gene reporter (GR) inhibition, no effect: ne: no effect; details: for IC50: TNFα 2 ng/ml, non toxic concentrations, read-out: Gene reporter (GR) inhibition IC50
Source text: To determine if the compounds of the invention were active also in a cellular model, a gene reporter assay was established in a cell line (JB6 Cl 41-5a (P+)) know to activate Fyn kinase via an inflammatory stimuli (TNFα). GR assay measures the activation of the nuclear transcription factor NF-kB, situated down-stream the Fyn activation pathway. Products active in this analysis has to penetrate in the cell and inhibit the activation pathway of NF-kB.
The murine epithelial cell line JB6 Cl 41-5a (P+) (ATCC® Cat. #CRL-2010) was stably transfected with the pGL4.32[luc2P/NFkB-RE/Hygro] vector (Promega). Clonal selection was achieved by limiting with 80 μg/ml Hygromycin B. The clones were tested for their response to TNFα stimulus.
JB6(P+) NFkB-RE-luc2P transfected cells were used for the analysis of NF-kB activity modulation, after TNFα stimulation, by Fyn-inhibitors.
Cells were pre-treated with the different compounds for 1 h and then stimulated with 2 ng/ml TNFα for 4 h. Each tested condition was analyzed in quadruplicate.
The luciferase analysis was performed with ONE-Glo™+ToxLuciferase Reporter and Cell Viability Assay kit (Promega).

ADAMTS-5 = assay: Gene expression in rat articular chondrocytes under IL-1β stimulation, ADAMTS-5; format: cell-based; design: key to ADAMTS-5 gene expression, no effect: ne: no effect
Procedure: as §1, §2, §3, §4, §5, §6, §7, §8, §9

MMP3 = assay: Gene expression in rat articular chondrocytes under IL-1β stimulation, MMP3; format: cell-based; design: key to MMP3 gene expression, no effect: ne: no effect; details: for MMP3 gene expression, no effect: 24 h
Procedure: as §1, §2, §3, §4, §5, §6, §7, §8, §9

[1] = tested on: rat primary articular chondrocytes; assay: Toxicity analysis (MTT) in rat primary chondrocytes; details: rat primary chondrocytes, 24 h
Procedure: Purified chondrocytes were resuspended in DMEM glutaMAX 10% and plated in a 96X well plate for toxicity analysis and in a 6X well plate for gene expression analysis.
For toxicity analysis cells were then treated with the different compounds for 24 and 48 h. At the end of the incubation time, the medium was removed and was substituted with a mixture 10:1 of DMEM glutaMAX 10%—MTT (2 mg/ml) for 1 h at 37° C. in the cell incubator. After this incubation, the precipitated salt was dissolved with 100 μl of DMSO and the plate was read at 540 nm. The toxicity analysis were performed to decide the maximal non toxic concentration of each compound used in the gene expression assay.

COX2 = assay: Gene expression in rat articular chondrocytes under IL-1β stimulation, COX2; format: cell-based; details: 24 h
IL-1β = assay: Gene expression in rat articular chondrocytes under IL-1β stimulation, IL-1β; format: cell-based; details: for IC50: Rattus norvegicus, Chondrocyte, 6 h incubation
Procedure: as §1, §2, §3, §4, §5, §6, §7, §8, §9

[2] = Rattus norvegicus, Chondrocyte, 6 h incubation

Chain of Fyn (P06241 whole entry): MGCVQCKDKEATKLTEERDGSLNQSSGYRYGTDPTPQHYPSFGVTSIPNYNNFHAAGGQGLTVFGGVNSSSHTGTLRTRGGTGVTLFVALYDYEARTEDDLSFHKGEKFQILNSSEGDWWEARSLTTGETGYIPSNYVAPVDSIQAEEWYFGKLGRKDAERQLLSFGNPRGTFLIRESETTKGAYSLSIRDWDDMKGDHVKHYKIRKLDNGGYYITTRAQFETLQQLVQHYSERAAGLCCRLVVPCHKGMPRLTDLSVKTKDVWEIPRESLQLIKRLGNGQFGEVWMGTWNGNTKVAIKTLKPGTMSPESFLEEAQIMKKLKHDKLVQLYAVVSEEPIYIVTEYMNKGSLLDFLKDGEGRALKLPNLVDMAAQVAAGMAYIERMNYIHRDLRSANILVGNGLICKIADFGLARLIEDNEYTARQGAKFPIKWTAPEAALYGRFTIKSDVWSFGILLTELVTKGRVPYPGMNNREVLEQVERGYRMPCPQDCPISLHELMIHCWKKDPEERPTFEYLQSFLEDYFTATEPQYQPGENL
Chain of VEGFR2 (P35968 20-1356): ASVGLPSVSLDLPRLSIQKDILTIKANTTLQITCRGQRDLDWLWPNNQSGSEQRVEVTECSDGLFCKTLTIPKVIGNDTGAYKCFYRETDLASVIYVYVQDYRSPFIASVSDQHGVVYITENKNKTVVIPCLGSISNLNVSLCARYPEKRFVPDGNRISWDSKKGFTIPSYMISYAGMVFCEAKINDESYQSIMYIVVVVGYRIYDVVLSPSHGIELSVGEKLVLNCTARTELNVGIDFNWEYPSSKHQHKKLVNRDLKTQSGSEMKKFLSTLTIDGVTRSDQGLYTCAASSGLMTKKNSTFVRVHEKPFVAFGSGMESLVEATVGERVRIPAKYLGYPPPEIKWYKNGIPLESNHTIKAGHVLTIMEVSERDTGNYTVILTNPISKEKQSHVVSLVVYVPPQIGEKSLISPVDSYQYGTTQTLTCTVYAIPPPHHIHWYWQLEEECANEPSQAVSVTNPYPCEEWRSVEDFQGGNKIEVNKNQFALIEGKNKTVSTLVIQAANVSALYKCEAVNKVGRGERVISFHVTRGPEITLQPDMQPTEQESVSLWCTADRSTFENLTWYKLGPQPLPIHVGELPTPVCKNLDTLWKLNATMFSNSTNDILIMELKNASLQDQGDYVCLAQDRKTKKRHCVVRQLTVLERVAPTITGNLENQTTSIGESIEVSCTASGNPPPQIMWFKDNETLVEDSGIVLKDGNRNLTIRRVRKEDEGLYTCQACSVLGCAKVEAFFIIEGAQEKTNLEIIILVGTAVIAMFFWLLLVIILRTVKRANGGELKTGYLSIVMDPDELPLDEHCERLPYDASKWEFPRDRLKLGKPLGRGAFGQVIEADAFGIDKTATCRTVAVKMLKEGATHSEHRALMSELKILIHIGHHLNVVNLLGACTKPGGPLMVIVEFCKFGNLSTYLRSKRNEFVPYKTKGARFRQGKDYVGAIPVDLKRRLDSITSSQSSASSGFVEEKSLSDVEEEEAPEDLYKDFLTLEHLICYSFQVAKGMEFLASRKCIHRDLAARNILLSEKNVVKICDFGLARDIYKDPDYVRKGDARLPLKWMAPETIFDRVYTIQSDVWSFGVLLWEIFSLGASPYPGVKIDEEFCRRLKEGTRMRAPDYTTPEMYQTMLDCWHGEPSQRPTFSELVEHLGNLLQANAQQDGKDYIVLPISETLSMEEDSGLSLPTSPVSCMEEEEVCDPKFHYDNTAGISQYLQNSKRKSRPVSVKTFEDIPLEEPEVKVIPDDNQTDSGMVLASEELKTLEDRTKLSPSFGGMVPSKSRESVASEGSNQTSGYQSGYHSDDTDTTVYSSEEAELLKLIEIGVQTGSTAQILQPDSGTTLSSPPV

Row | IC50 (Fyn) | IC50 (VEGFR2) | IC50 (IL-1β) | SMILES | IC50 (NF-kB; Mus musculus, JB6 Cl 41-5a) | MMP3 gene expression, no effect (MMP3) | First toxic concentration at 24 h [1] | COX2 gene expression, percentage of inhibitory effect at the highest non toxic concentration (COX2; 1 μM) | further results
1 | 63 nM | < 10 nM | 100 nM | Cc1ccc(NC(=O)c2cc(C(F)(F)F)ccc2F)cc1CCc1cc(Nc2cnccn2)[nH]n1 [Compound 7, 2-fluoro-N-(4-methyl-3-(2-(5-(pyrazin-2-ylamino)-1H-pyrazol-3-yl)ethyl)phenyl)-5-(trifluoromethyl)benzamide] | 1160 nM | ne | 3 µM | 1 μM 41% | IC50 (IL-6; [2]): 200 nM; MMP13 gene expression, percentage of inhibitory effect at the highest non toxic concentration (MMP13; 1 μM): 1 μM 38%; ADAMTS-5 gene expression, percentage of inhibitory effect at the highest non toxic concentration (ADAMTS-5; 1 μM, 6 h): 1 μM 81%
2 | 20 nM | < 10 nM | 300 nM | Cc1ccc(NC(=O)c2cc(S(=O)(=O)C3CC3)ccn2)cc1CCc1cc(Nc2cnccn2)[nH]n1 [Compound 8, 4-(cyclopropylsulfonyl)-N-(4-methyl-3-(2-(5-(pyrazin-2-ylamino)-1H-pyrazol-3-yl)ethyl)phenyl)picolinamide] | < 250 nM | ne | 3 µM | 1 μM 63% | IL-6 gene expression, percentage of inhibitory effect at the highest non toxic concentration (IL-6; 1 μM): 1 μM 99%; MMP13 gene expression, no effect (MMP13): ne; IC50 (NF-kB): 233 nM; ADAMTS-5 gene expression, no effect (ADAMTS-5; 6 h): ne
3 | 1 nM | 11 nM | – | Cc1nc(C#N)cc(Nc2cc(CCc3cc(NC(=O)c4ccc(CN(C)C)c(C(F)(F)F)c4)ccc3F)n[nH]2)n1 [Compound 39, N-(3-(2-(5-((6-cyano-2-methylpyrimidin-4-yl)amino)-1H-pyrazol-3-yl)ethyl)-4-fluorophenyl)-4-((dimethylamino)methyl)-3-(trifluoromethyl)benzamide] | 1060 nM | – | 10 µM | – | IL-6 gene expression, percentage of inhibitory effect at the highest non toxic concentration (IL-6; 3 μM): 3 μM 100%; MMP13 gene expression, percentage of inhibitory effect at the highest non toxic concentration (MMP13; 3 μM): 3 μM 90%; IC50 (ADAMTS-5; [2]): 500 nM; IC50 (MMP3; Rattus norvegicus, Chondrocyte, 24 h incubation): 1200 nM; COX2 gene expression, percentage of inhibitory effect at the highest non toxic concentration (COX2; 3 μM): 3 μM 99%; IL-1β gene expression, percentage of inhibitory effect at the highest non toxic concentration (IL-1β; 3 μM, 6 h): 3 μM 100%
4 | 19 nM | 10 nM | – | Cc1nc(Nc2cc(CCc3ccc(F)c(NC(=O)c4cccc(C(F)(F)F)c4)c3)n[nH]2)cc(N2CCOCC2)n1 [Compound 43, N-(2-fluoro-5-(2-(5-((2-methyl-6-morpholinopyrimidin-4-yl)amino)-1H-pyrazol-3-yl)ethyl)phenyl)-3-(trifluoromethyl)benzamide] | 2440 nM | – | – | – | –
5 | 10 nM | 10 nM | – | CN(C)Cc1ccc(C(=O)Nc2cccc(CCc3cc(NC(=O)c4ccc(N5CCOCC5)cc4)[nH]n3)c2)cc1 [Compound 47, 4-((dimethylamino)methyl)-N-(3-(2-(5-(4-morpholinobenzamido)-1H-pyrazol-3-yl)ethyl)phenyl)benzamide] | – | – | – | – | Gene reporter (GR) inhibition, no effect (NF-kB): ne

From patent US12509446B2, “FYN and VEGFR2 kinase inhibitors” (ROTTAPHARM BIOTECH S.R.L., priority 2019, dated 2025)
